Assay results as given in ChEMBL document CHEMBL3232789, “Design and synthesis of novel 2H-chromen-2-one derivatives bearing 1,2,3-triazole moiety as lead antimicrobials” (2014).

Tests used:
Aspergillus niger = test: Antifungal activity against Aspergillus niger MTCC 282 assessed as growth inhibition at 100 ug/mL after 30 hrs by cup plate method; format: functional; details: MTCC 282, 30 h, read-out: DIZ
Aspergillus fumigatus = test: Antifungal activity against Aspergillus fumigatus MTCC 343 assessed as growth inhibition at 100 ug/mL after 30 hrs by cup plate method; format: functional; details: MTCC 343, 30 h, read-out: DIZ
Aspergillus flavus = test: Antifungal activity against Aspergillus flavus MTCC 277 assessed as growth inhibition at 100 ug/mL after 30 hrs by cup plate method; format: functional; details: MTCC 277, 30 h, read-out: DIZ
Candida albicans = test: Antifungal activity against Candida albicans MTCC 227 assessed as growth inhibition at 100 ug/mL after 30 hrs by cup plate method; format: functional; details: MTCC 227, 30 h, read-out: DIZ
Staphylococcus aureus = test: Antibacterial activity against Staphylococcus aureus MTCC 096 assessed as growth inhibition at 100 ug/mL after 14 hrs by cup plate method; format: functional; details: MTCC 096, 14 h, read-out: DIZ
Bacillus subtilis = test: Antibacterial activity against Bacillus subtilis MTCC 441 assessed as growth inhibition at 100 ug/mL after 14 hrs by cup plate method; format: functional; details: MTCC 441, 14 h, read-out: DIZ
[1] = test system: Staphylococcus epidermidis; test: Antibacterial activity against Staphylococcus epidermidis MTCC 435 assessed as growth inhibition at 100 ug/mL after 14 hrs by cup plate method; format: functional; details: MTCC 435, 14 h, read-out: DIZ
Escherichia coli = test: Antibacterial activity against Escherichia coli MTCC 443 assessed as growth inhibition at 100 ug/mL after 14 hrs by cup plate method; format: functional; details: MTCC 443, 14 h, read-out: DIZ
Pseudomonas aeruginosa = test: Antibacterial activity against Pseudomonas aeruginosa MTCC 424 assessed as growth inhibition at 100 ug/mL after 14 hrs by cup plate method; format: functional; details: MTCC 424, 14 h, read-out: DIZ
Salmonella typhi = test: Antibacterial activity against Salmonella typhi MTCC 733 assessed as growth inhibition at 100 ug/mL after 14 hrs by cup plate method; format: functional, Salmonella enterica subsp. enterica serovar Typhi; details: Salmonella enterica, MTCC 733, 14 h; read-out: DIZ
Klebsiella pneumoniae = test: Antibacterial activity against Klebsiella pneumoniae MTCC 432 assessed as growth inhibition at 100 ug/mL after 14 hrs by cup plate method; format: functional; details: MTCC 432, 14 h, read-out: DIZ

Cc1cc(=O)oc2cc(OCCCCCCN=[N+]=[N-])ccc12
zone of inhibition at 100 µg/mL (Aspergillus niger): 13.8 mm
zone of inhibition at 100 µg/mL (Aspergillus fumigatus): 19 mm
zone of inhibition at 100 µg/mL (Aspergillus flavus): 16.4 mm
zone of inhibition at 100 µg/mL (Candida albicans): 18.7 mm
zone of inhibition at 100 µg/mL (Staphylococcus aureus): 15.7 mm
zone of inhibition at 100 µg/mL (Bacillus subtilis): 12.5 mm
zone of inhibition at 100 µg/mL [1]: 13.5 mm
zone of inhibition at 100 µg/mL (Escherichia coli): 14.3 mm
zone of inhibition at 100 µg/mL (Pseudomonas aeruginosa): 13 mm
zone of inhibition at 100 µg/mL (Salmonella typhi): 12.4 mm
zone of inhibition at 100 µg/mL (Klebsiella pneumoniae): 14.5 mm

Cc1cc(=O)oc2cc(OCCCCCCn3cc(CN4CCCCC4)nn3)ccc12
zone of inhibition at 100 µg/mL (Aspergillus niger): 11.9 mm
zone of inhibition at 100 µg/mL (Aspergillus fumigatus): 18.8 mm
zone of inhibition at 100 µg/mL (Aspergillus flavus): 12.5 mm
zone of inhibition at 100 µg/mL (Candida albicans): 14 mm
zone of inhibition at 100 µg/mL (Staphylococcus aureus): 12.9 mm
zone of inhibition at 100 µg/mL (Bacillus subtilis): 12.6 mm
zone of inhibition at 100 µg/mL [1]: 13.1 mm
zone of inhibition at 100 µg/mL (Escherichia coli): 12.8 mm
zone of inhibition at 100 µg/mL (Pseudomonas aeruginosa): 13.2 mm
zone of inhibition at 100 µg/mL (Salmonella typhi): 14.4 mm
zone of inhibition at 100 µg/mL (Klebsiella pneumoniae): 12.9 mm

Cc1cc(=O)oc2cc(OCCCCCCn3cc(CN4CCCC4)nn3)ccc12
zone of inhibition at 100 µg/mL (Aspergillus niger): 12.5 mm
zone of inhibition at 100 µg/mL (Aspergillus fumigatus): 18.5 mm
zone of inhibition at 100 µg/mL (Aspergillus flavus): 14.7 mm
zone of inhibition at 100 µg/mL (Candida albicans): 14.4 mm
zone of inhibition at 100 µg/mL (Staphylococcus aureus): 13.6 mm
zone of inhibition at 100 µg/mL (Bacillus subtilis): 14 mm
zone of inhibition at 100 µg/mL [1]: 14 mm
zone of inhibition at 100 µg/mL (Escherichia coli): 11.7 mm
zone of inhibition at 100 µg/mL (Pseudomonas aeruginosa): 14.8 mm
zone of inhibition at 100 µg/mL (Salmonella typhi): 15.2 mm
zone of inhibition at 100 µg/mL (Klebsiella pneumoniae): 14.4 mm

Cc1cc(=O)oc2cc(OCCCCN=[N+]=[N-])ccc12
zone of inhibition at 100 µg/mL (Aspergillus niger): 13.1 mm
zone of inhibition at 100 µg/mL (Aspergillus fumigatus): 18.6 mm
zone of inhibition at 100 µg/mL (Aspergillus flavus): 13.6 mm
zone of inhibition at 100 µg/mL (Candida albicans): 19.3 mm
zone of inhibition at 100 µg/mL (Staphylococcus aureus): 13.5 mm
zone of inhibition at 100 µg/mL (Bacillus subtilis): 11.3 mm
zone of inhibition at 100 µg/mL [1]: 12.7 mm
zone of inhibition at 100 µg/mL (Escherichia coli): 13 mm
zone of inhibition at 100 µg/mL (Pseudomonas aeruginosa): 12.8 mm
zone of inhibition at 100 µg/mL (Salmonella typhi): 12.9 mm
zone of inhibition at 100 µg/mL (Klebsiella pneumoniae): 12.5 mm

Cc1cc(=O)oc2cc(OCc3cn(CCCN4C(=O)c5ccccc5C4=O)nn3)ccc12
zone of inhibition at 100 µg/mL (Aspergillus niger): 13.2 mm
zone of inhibition at 100 µg/mL (Aspergillus fumigatus): 21.3 mm
zone of inhibition at 100 µg/mL (Aspergillus flavus): 16.4 mm
zone of inhibition at 100 µg/mL (Candida albicans): 18.6 mm
zone of inhibition at 100 µg/mL (Staphylococcus aureus): 12.8 mm
zone of inhibition at 100 µg/mL (Bacillus subtilis): 12.5 mm
zone of inhibition at 100 µg/mL [1]: 11.4 mm
zone of inhibition at 100 µg/mL (Escherichia coli): 12.6 mm
zone of inhibition at 100 µg/mL (Pseudomonas aeruginosa): 13.1 mm
zone of inhibition at 100 µg/mL (Salmonella typhi): 12.3 mm
zone of inhibition at 100 µg/mL (Klebsiella pneumoniae): 14.4 mm

Cc1cc(=O)oc2cc(OCCCCCCn3cc(CN4C(=O)c5ccccc5C4=O)nn3)ccc12
zone of inhibition at 100 µg/mL (Aspergillus niger): 13.9 mm
zone of inhibition at 100 µg/mL (Aspergillus fumigatus): 18.5 mm
zone of inhibition at 100 µg/mL (Aspergillus flavus): 15.2 mm
zone of inhibition at 100 µg/mL (Candida albicans): 14.9 mm
zone of inhibition at 100 µg/mL (Staphylococcus aureus): 12.9 mm
zone of inhibition at 100 µg/mL (Bacillus subtilis): 12.8 mm
zone of inhibition at 100 µg/mL [1]: 12.6 mm
zone of inhibition at 100 µg/mL (Escherichia coli): 13.4 mm
zone of inhibition at 100 µg/mL (Pseudomonas aeruginosa): 12.8 mm
zone of inhibition at 100 µg/mL (Salmonella typhi): 12.4 mm
zone of inhibition at 100 µg/mL (Klebsiella pneumoniae): 12.9 mm

Cc1cc(=O)oc2cc(OCCCCCCn3cc(CN4CCOCC4)nn3)ccc12
zone of inhibition at 100 µg/mL (Aspergillus niger): 12.9 mm
zone of inhibition at 100 µg/mL (Aspergillus fumigatus): 16.9 mm
zone of inhibition at 100 µg/mL (Aspergillus flavus): 16.8 mm
zone of inhibition at 100 µg/mL (Candida albicans): 13.5 mm
zone of inhibition at 100 µg/mL (Staphylococcus aureus): 11.7 mm
zone of inhibition at 100 µg/mL (Bacillus subtilis): 15.4 mm
zone of inhibition at 100 µg/mL [1]: 13.4 mm
zone of inhibition at 100 µg/mL (Escherichia coli): 14.4 mm
zone of inhibition at 100 µg/mL (Pseudomonas aeruginosa): 14.5 mm
zone of inhibition at 100 µg/mL (Salmonella typhi): 13.5 mm
zone of inhibition at 100 µg/mL (Klebsiella pneumoniae): 14.6 mm
